Patent US20100113415A1, “EPHA4 RTK INHIBITORS FOR TREATMENT OF NEUROLOGICAL AND NEURODEGENERATIVE DISORDERS AND CANCER” (priority 2008, published 2010)

Columns and labels:
[1] = test system: CHO-K1 cells; experiment: Cell viability (Cell Glo Assay) on parallel plates of the EphA4 cell assay; format: cell-based, Chinese Hamster; details: at 100 μM
Protocol: Transfection and Luciferase Assay: CHO-K1 cells were plated in T-175 cell culture bottle in DMEM medium supplemented with 10% fetal bovine serum, 1 mM sodium pyruvate, 2 mM L-glutamine and 1.5 g/L sodium bicarbonate. When cell reached 70-80% confluence, transfections were performed in T-175 culture flasks, using Lipofectamine 2000™ transfection reagent (Invitrogen) according to the manufacturer's directions. For the luciferase assay CHO-K1 cells were co-transfected the next day with 50 μg of pGAS-Luc, 70 μg of EphA4, and 5 μg of empty vector pRL-CMV, which encoded the Renilla luciferase, and was included in the transfection mix for normalization. […] Cells were lysed the next day using the Reporter Lysis Buffer (Promega), and the luciferase activity was measured using the Dual Luciferase Assay (Promega) following the manufacturer's directions. The Firefly and Renilla luminescences are read consecutively on a Top-Count (Perkin-Elmer). Results are expressed as a ratio of the two luminescence: Firefly Luciferase/Renilla Luciferase. Cell viability was assessed on parallel plates using the Cell Glo Assay (Promega) following the manufacturer's directions. Results are expressed as percent of cell death in comparison with vehicle-treated wells.

[2] = molecular target: T1, Jak2 (Homo sapiens, UniProt O60674); experiment: Jak2 kinase counterscreen enzymatic assay (TR-FRET); format: biochemical; details: 5 μM ATP
T1 construct: purchased Cell Signaling, USA
T1 sequence (O60674 whole entry, species assumed): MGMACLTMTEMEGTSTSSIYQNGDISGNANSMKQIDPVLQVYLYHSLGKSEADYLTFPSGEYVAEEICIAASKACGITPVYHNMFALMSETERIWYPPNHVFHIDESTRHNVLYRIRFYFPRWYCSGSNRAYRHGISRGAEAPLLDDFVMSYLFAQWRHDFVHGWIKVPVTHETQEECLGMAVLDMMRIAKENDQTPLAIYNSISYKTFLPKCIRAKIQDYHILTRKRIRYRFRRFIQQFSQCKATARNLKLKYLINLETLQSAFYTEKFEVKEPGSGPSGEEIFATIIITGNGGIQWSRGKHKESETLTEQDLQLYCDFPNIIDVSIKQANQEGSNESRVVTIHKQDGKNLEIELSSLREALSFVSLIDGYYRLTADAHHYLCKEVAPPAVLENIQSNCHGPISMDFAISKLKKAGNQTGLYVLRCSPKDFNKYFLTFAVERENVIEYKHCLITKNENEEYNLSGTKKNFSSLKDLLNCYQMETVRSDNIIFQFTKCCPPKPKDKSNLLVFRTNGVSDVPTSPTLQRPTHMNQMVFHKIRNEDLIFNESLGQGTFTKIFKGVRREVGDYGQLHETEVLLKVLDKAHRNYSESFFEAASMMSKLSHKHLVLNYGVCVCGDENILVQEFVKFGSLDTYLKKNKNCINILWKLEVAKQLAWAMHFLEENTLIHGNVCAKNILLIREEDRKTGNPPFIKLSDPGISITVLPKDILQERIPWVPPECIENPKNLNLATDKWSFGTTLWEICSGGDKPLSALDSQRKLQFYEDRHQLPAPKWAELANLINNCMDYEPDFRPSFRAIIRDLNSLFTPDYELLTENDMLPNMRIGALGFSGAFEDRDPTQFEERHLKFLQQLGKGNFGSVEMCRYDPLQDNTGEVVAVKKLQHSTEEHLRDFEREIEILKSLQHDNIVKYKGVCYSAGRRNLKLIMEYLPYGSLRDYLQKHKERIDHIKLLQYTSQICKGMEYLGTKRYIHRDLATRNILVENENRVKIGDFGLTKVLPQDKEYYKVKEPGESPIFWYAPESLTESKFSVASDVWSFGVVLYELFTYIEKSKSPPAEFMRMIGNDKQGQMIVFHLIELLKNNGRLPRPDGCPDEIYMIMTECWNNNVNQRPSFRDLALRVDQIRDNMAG
Protocol: Counterscreen assays were developed for the tyrosine kinases src kinase and Jak2 kinase, with a format essentially identical to the EphA4 kinase TR-FRET format. Jak2 (50 ng) (Cell Signaling, USA) was incubated with 0.5 μM of biotinylated FLT3 peptide (Cell Signaling, USA) in presence of 5 μM of ATP (Sigma). P60c-src (10 U/well) (Upstate biotechnology, USA) was incubated with biotinylated Poly(Glu Tyr) peptide (100 nM) in presence of 0.5 μM of ATP. The enzymatic reaction was stopped after 60 min by adding 15 mM EDTA. The detection reaction and energy transfer signal measurements were similar to those previously described. Results were expressed as ratios of the absorbencies 665/615.
Compounds were titrated in duplicate at 11 points concentration starting at 100 μM with a 3 fold increment. Compounds were diluted in DMSO. […] Percentage inhibition for each compound was then calculated based on the value of the 100% inhibition. Concentration-response curves were represented and the concentrations for 50% inhibition (IC50) were calculated.

[3] = test system: Primary Rat cortical astrocytes; experiment: Toxicity (percent of cell death), astrocytes; format: cell-based; details: at 20 μM
Protocol: EphA4 kinase inhibition is assessed by both an enzymatic assay measuring the phosphorylation of a purified recombinant EphA4 kinase and a cell-based assay using the activation of pGas-Luciferase system in EphA4-transfected CHO-K1 cells. The functional effects of EphA4 RTK inhibitors on cell motility and proliferation is evaluated by the scratch wound assay. The effect of EphA4 RTK inhibitors is also directly measured on the cell confluence. The counterscreen assays (cell counterscreen, Src, Jak2 and P38α kinase) identified other potential inhibitory activities of compounds unrelated to EphA4 kinase. The toxicity is measured by the percent of cell death in the different cell assays. Values represent IC50 and IP in μM calculated from the dose-response curves. Values in parentheses give the maximum percent inhibition.

[4] = test system: Primary Rat cortical astrocytes; experiment: Proliferation assay (cell confluence), astrocytes; format: cell-based; details: at 5 μM
Protocol: C2Cl2 were plated at 15,000 cells per well and then differentiated into myotubes with DMEM supplemented with 2% horse serum for 3 days in 24 well ImageLock™ plate (Essen Instruments, MI, USA). Primary Rat cortical astrocytes were plated at 3.105 cells/ml onto 24 well ImageLock™ plate.
Cells were placed into the IncuCyte™ at 37° C. and 95% CO2/5% O2, for two to three days. During this time, the cells within each well were repeatedly imaged at fixed time intervals (every three hours). The IncuCyte™ system automatically monitored the proliferation using the percentage of confluence. Percent of confluence can be graphed over time to evaluate the characteristics of proliferation in the presence of pharmacological agents.
Compounds were tested at 5 μM in quadruplicate. The percentage of reduction of cell confluence was calculated from the AUCs in comparison with the AUCs of the control wells (1% DMSO).

[5] = test system: Primary Rat cortical astrocytes; experiment: Scratch wound assay, astrocytes; format: cell-based; details: from AUC of % wound confluence; for IC50: Rattus norvegicus, Astrocyte, inflexion point, read-out: Scratch Assay Astrocytes IP
Protocol: Primary Rat cortical astrocytes were purchased from Lonza (Walkersvelle Inc., MA, USA). Cells were plated in culture flasks at a density of 1.106-3.106 cells/ml, and maintained at 37° C. and 95% CO2/5% O2, in Astrocyte Growth Medium Bulletkit™ (Lonza Walkersville Inc., MA, USA). When astrocyte cultures reached confluence, cells were trypsinized and replated at 6.105 cells/ml onto 24 well ImageLock™ plate (Essen Instruments, MI, USA).
Scratch wound assays are commonly used to assess the effects of drugs and drug candidates on the cellular proliferation and/or migration associated with wound closing. The IncuCyte™ system (Essen Instruments, MI, USA), an automated imaging platform, provides ongoing, real-time images and quantitative data generated throughout the wound-closing process. Cells were maintained in 24 well ImageLock™ (Essen Instruments, MI, USA) at 37° C. and 95% CO2/5% O2, until a confluent monolayer was achieved. A single scratch wound was then created in each well using the Essen Woundmaker™ (Essen Instruments, MI, USA). It induced a mechanical scratch of the cell monolayer using plastic pipette tips (10-20 μl pipette tips, Eppendorff). Dead cells and other debris produced by the scratch were immediately washed with regular growth media. Cells were then treated with pharmacological agents and were placed into the IncuCyte™ at 37° C. and 95% CO2/5% O2, for two to three days. During this time, the wound area within each well was repeatedly imaged at fixed time intervals (every three hours). The IncuCyte™ scratch wound software generates a “wound mask” for each well. An initial wound mask is created for the first image (at time 0) that clearly delineates the border of the wound. A revised mask is generated for each subsequent image to track wound closure. Wound closure can be automatically monitored using the wound confluence (% confluence). Wound confluence can be graphed over time to evaluate the characteristics of wound closing in the presence of pharmacological agents.
The calculation of the area under the curve (AUC) of the % confluence function of the time gave a quantitative measurement of compounds efficacy on the scratch wound closing. Compounds were titrated in quadruplicate at 5 points concentration starting at 20 μM with a two-fold increment. The percentage of inhibition was calculated from the AUCs at each dose in comparison with the AUCs of the control wells (1% DMSO). Concentration-response curves were represented and the concentrations at the inflexion point (IP) were calculated. The maximum effect was given by the maximum percent inhibition.

Row | SMILES | Max Toxicity Cell Assay % of cell death [1] [% at 100 μM] | IC50 [2] [µM] | Max Toxicity Astrocytes % of cell death [3] [% at 20 μM] | % Reduction of Confluence Astrocytes [4] [% at 5 μM] | IC50 [5] [µM] | Scratch Assay Astrocytes max inhibition in % [5] [%]
1 | Cc1ccccc1-c1nc2[nH]nc(N)c2c2c1CCC(C)(C)C2 [Example 67] | 76 | 1 | 12.5 | 29.1 | 1.4 | 66
2 | CC1CCc2c(-c3ccccc3Cl)nc3[nH]nc(N)c3c2C1 (stereo not drawn) [Example 63] | 68 | > 100 | 5 | 14.8 | 49 | 33
